Measurements: patent publication US20200253877A1, “GEMCABENE, PHARMACEUTICALLY ACCEPTABLE SALTS THEREOF, COMPOSITIONS THEREOF AND METHODS OF USE THEREFOR” (NEUROBO PHARMACEUTICALS, INC., priority 2018, published 2020)

Experiments:
[1] = tested on: STAM™ mice, a murine model of NASH-HCC; experiment: Murine STAM model of NASH-HCC: whole blood, plasma and liver biochemistry
[2] = tested on: hepatic mRNA expression in STAM™ mice; experiment: Murine STAM model of NASH-HCC: hepatic gene expression by quantitative RT-PCR; assay type: in vivo, mouse
Method: A study was performed to evaluate the efficacy of gemcabene calcium salt hydrate Crystal Form 1 having a PSD90 of 52 μm as measured by laser light diffraction, in treating non-alcoholic steatosis hepatitis (NASH) in the murine STAM™ model of NASH-HCC.
Briefly, two-day old neonatal C57BL/6 male mice were administered low-dose streptozotocin (STZ), and were subsequently fed a HFC diet from 4 weeks of age. In this model, the mice typically develop liver steatosis and diabetes, reaching steatohepatitis within 3 weeks, followed by cirrhosis within 8 weeks, and carcinoma within 16 weeks. In the current study, mice were administered daily oral gemcabene calcium salt hydrate Crystal Form 1 starting at week 6 of age and were sacrificed at week 9. […] These STAM™ groups were orally administered from week 6 one of the following: water-vehicle, gemcabene calcium salt hydrate Crystal Form 1 at 30, 100 and 300 mg/kg daily, or telmisartan ([…]®) 10 mg/kg daily. […] All groups were sacrificed at week 9. Vehicle, gemcabene calcium salt hydrate Crystal Form 1, or telmisartan were administered by oral gavage once daily.
Various gene expression markers of liver metabolism were evaluated by Real-Time PCR (RT-PCR) in all mouse groups. Total RNA was extracted from liver samples using RNAiso (Takara Bio, Japan) according to the manufacturer's instructions. […] of RNA was reverse-transcribed using a reaction mixture containing 4.4 mM MgCl2 (F. Hoffmann-La Roche, Switzerland), 40 U RNase inhibitor (Toyobo, Japan), 0.5 mM dNTP (Promega, USA), 6.28 μM random hexamer (Promega), 5×first strand buffer (Promega), 10 mM dithiothreitol (Invitrogen, USA) and 200 U MMLV-RT (Invitrogen) in a final volume of 20 μL. The reaction was carried out for 1 hour at 37° C., followed by 5 minutes at 99° C. Real-time PCR was performed using real-time PCR DICE and SYBR premix Taq (Takara Bio). To calculate the relative mRNA expression level, the expression of each gene was normalized to that of reference gene 36B4 (gene symbol: RplpO). Information of PCR-primer sets is described in Tables 37A-37C. Statistical analyses were performed using the Bonferroni Multiple Comparison Test on GraphPad Prism 6 (GraphPad Software Inc., USA). P values <0.05 were considered statistically significant. Results are expressed as mean±SD.
In order to calculate the relative mRNA expression level, the expression of each gene was normalized to that of the reference gene 36B4 (gene symbol: RplpO). The gene expression levels were measured by quantitative RT-PCR. Results were normalized with values for the vehicle-treated normal group. […] Gemcabene calcium salt hydrate Crystal Form 1 (PSD90=52 μm) modulated the mRNA expression of many hepatic genes that play a significant role in the liver homeostasis and injury.

[3] = gemcabene Form 1 100 mg/kg, telmisartan 10 mg/kg
[4] = vs Vehicle in NASH group, gemcabene Form 1 30 mg/kg
[5] = vs Vehicle in NASH group, gemcabene Form 1 100 and 300 mg/kg
[6] = vs Vehicle in NASH group, gemcabene Form 1 100 and 300 mg/kg, telmisartan 10 mg/kg

Structure (SMILES): CC(C)(CCCCOCCCCC(C)(C)C(=O)O)C(=O)O.[Ca] [6-(5-Carboxy-5-methyl-hexyloxy)-2,2-dimethylhexanoic acid calcium]
- fasting whole blood glucose concentrations ([1]; 3 days prior to termination, 8 h fasting, vs vehicle-treated STAM mice, gemcabene Form 1 30, 100, 300 mg/kg, telmisartan 10 mg/kg, oral daily wk 6-9): no significant differences
- plasma CRP levels ([1]; STAM mice): decreased
- plasma ALP levels ([1]; at termination, vs vehicle-treated NASH group, gemcabene Form 1 100 and 300 mg/kg, telmisartan 10 mg/kg): significant increases
- plasma creatinine levels ([1]; at termination, vs vehicle-treated STAM group, gemcabene Form 1 300 mg/kg): significant increase
- plasma ALT levels ([1]; at termination, vs vehicle-treated STAM mice, gemcabene Form 1 100 mg/kg): significant decrease
- whole blood glucose levels ([1]; at termination, vs vehicle-treated STAM mice, gemcabene Form 1 30, 100, 300 mg/kg, telmisartan 10 mg/kg): no significant differences
- plasma total cholesterol concentrations ([1]; vs vehicle-treated STAM mice, gemcabene Form 1 30 mg/kg): no significant difference
- plasma triglyceride concentrations ([1]; vs vehicle-treated STAM mice, gemcabene Form 1 30, 100, 300 mg/kg (dose-dependent manner), telmisartan 10 mg/kg): significant decreases
- liver triglyceride content ([1]; vs vehicle-treated STAM mice, gemcabene Form 1 30, 100, 300 mg/kg, telmisartan 10 mg/kg): no significant differences
- plasma total cholesterol concentrations ([1]; vs vehicle-treated STAM mice, gemcabene Form 1 100 and 300 mg/kg, telmisartan 10 mg/kg): significant increases
- LDL receptor gene expression ([2]; STAM mice): no effect
- hepatic ApoC-III mRNA ([2]; STAM mice): significantly downregulated
- MMP-2 mRNA expression (relative, mean±SD) ([2]; gemcabene Form 1 100 mg/kg): 0.5±0.2
- NF-κB mRNA expression (relative, mean±SD) ([2]; gemcabene Form 1 100 mg/kg): 0.9±0.1
- Sulf-2 mRNA expression (relative, mean±SD) ([2]; gemcabene Form 1 100 mg/kg): 3.8±0.7
- TIMP-1 mRNA expression (relative, mean±SD) ([2]; gemcabene Form 1 100 mg/kg): 3.8±1.6
- TNF-α mRNA expression (relative to vehicle-treated normal group, mean±SD) ([2]; gemcabene Form 1 100 mg/kg): 2.0±0.8
- ACC-1 mRNA expression (relative, mean±SD) [2, 3]: 0.7±0.1
- ADH-4 mRNA expression (relative, mean±SD) [2, 3]: 0.6±0.1
- CCR2 mRNA expression (relative, mean±SD) [2, 3]: 1.6±0.4
- CCR5 mRNA expression (relative, mean±SD) [2, 3]: 1.4±0.3
- CRP mRNA levels (relative, mean±SD) [2, 3]: 0.6±0.1
- MCP-1 mRNA expression (relative, mean±SD) [2, 3]: 1.7±0.7
- MIP-1β mRNA levels (relative, mean±SD) [2, 3]: 2.3±0.9
- ADH-4 mRNA expression (relative, mean±SD) ([2]; gemcabene Form 1 300 mg/kg): 0.5±0.1
- CCR2 mRNA expression (relative, mean±SD) ([2]; gemcabene Form 1 300 mg/kg): 1.7±0.7
- CCR5 mRNA expression (relative, mean±SD) ([2]; gemcabene Form 1 300 mg/kg): 1.3±0.3
- CRP mRNA levels (relative, mean±SD) ([2]; gemcabene Form 1 300 mg/kg): 0.5±0.1
- MCP-1 mRNA expression (relative, mean±SD) ([2]; gemcabene Form 1 300 mg/kg): 1.6±0.7
- MIP-1β mRNA levels (relative, mean±SD) ([2]; gemcabene Form 1 300 mg/kg): 2.8±1.4
- MMP-2 mRNA expression (relative, mean±SD) ([2]; gemcabene Form 1 300 mg/kg): 0.9±0.2
- NF-κB mRNA expression (relative, mean±SD) ([2]; gemcabene Form 1 300 mg/kg): 0.8±0.1
- Sulf-2 mRNA expression (relative, mean±SD) ([2]; gemcabene Form 1 300 mg/kg): 3.3±0.9
- TIMP-1 mRNA expression (relative, mean±SD) ([2]; gemcabene Form 1 300 mg/kg): 4.4±2.1
- TNF-α mRNA expression (relative to vehicle-treated normal group, mean±SD) ([2]; gemcabene Form 1 300 mg/kg): 1.9±0.7
- ANGPTL4 mRNA expression level [2, 4]: no significant difference
- IL-6 mRNA expression level [2, 4]: no significant difference
- Fetuin-A mRNA expression level ([2]; vs Vehicle in NASH group, gemcabene Form 1 100 mg/kg): significant down-regulation
- SCD mRNA expression level ([2]; vs Vehicle in NASH group, gemcabene Form 1 300 mg/kg): significant up-regulation
- hepatic LPL mRNA expression levels ([2]; vs Vehicle in NASH group, gemcabene Form 1 30, 100 and 300 mg/kg, telmisartan 10 mg/kg): significant up-regulations
- ANGPTL3 mRNA expression levels [2, 5]: significant down-regulations
- CXCL1/KC mRNA expression levels [2, 5]: marked down-regulation
- ANGPTL4 mRNA expression levels [2, 6]: significant down-regulations
- IL-6 mRNA expression level [2, 6]: significant down-regulations
